Reference: US20040044000A1, “Isoquinoline derivatives as matrix metalloproteinase inhibitors” (priority 2002, published 2004)

target: T1, MMP-13 catalytic domain (MMP-13CD) (Homo sapiens, UniProt P45452); assay: Inhibition of MMP-13 catalytic domain (thiopeptolide substrate hydrolysis); assay type: biochemical; conditions: Biological Table 1; read-out: MMP-13CD IC50
T1 construct: use the catalytic domain of the MMP-13 enzyme, namely matrix metalloproteinase-13 catalytic domain (“MMP-13CD”), rather than the corresponding full-length enzyme
From the text: The assays measure the amount by which a test compound reduces the hydrolysis of a thiopeptolide substrate catalyzed by a matrix metalloproteinase enzyme. Such assays are described in detail by Ye et al., in Biochemistry, 1992;31(45):11231-11235, which is incorporated herein by reference. One such assay is described below in Biological Method 1.
Some of the particular methods described below use the catalytic domain of the MMP-13 enzyme, namely matrix metalloproteinase-13 catalytic domain (“MMP-13CD”), rather than the corresponding full-length enzyme, MMP-13. It has been shown previously by Ye Qi-Zhuang, Hupe D., and Johnson L. (Current Medicinal Chemistry, 1996;3:407-418) that inhibitor activity against a catalytic domain of an MMP is predictive of the inhibitor activity against the respective full-length MMP enzyme.
Thiopeptolide substrates show virtually no decomposition or hydrolysis at or below neutral pH in the absence of a matrix metalloproteinase enzyme. A typical thiopeptolide substrate commonly utilized for assays is Ac-Pro-Leu-Gly-thioester-Leu-Leu-Gly-OEt. A 100 μL assay mixture will contain 50 mM of N-2-hydroxyethylpiperazine-N′-2-ethanesulfonic acid buffer (“HEPES,” pH 7.0), 10 mM CaCl2, 100 μM thiopeptolide substrate, and 1 mM 5,5′-dithio-bis-(2-nitro-benzoic acid) (DTNB). The thiopeptolide substrate concentration may be varied, for example from 10 to 800 μM to obtain Km and Kcat values. The change in absorbance at 405 nm is monitored on a Thermo Max microplate reader (molecular Devices, Menlo Park, Calif.) at room temperature (22° C.). The calculation of the amount of hydrolysis of the thiopeptolide substrate is based on E412=13600 M^−1 cm^−1 for the DTNB-derived product 3-carboxy-4-nitrothiophenoxide. Assays are carried out with and without matrix metalloproteinase inhibitor compounds, and the amount of hydrolysis is compared for a determination of inhibitory activity of the test compounds.
Test compounds were evaluated at various concentrations in order to determine their respective IC50 values, the micromolar concentration of compound required to cause a 50% inhibition of catalytic activity of the respective enzyme.

Row | IC50 [µM] | SMILES
1 | 12 | O=C(NCc1cncnc1)c1ccc2ccn(Cc3ccc(F)c(F)c3)c(=O)c2c1 [Example 26, 2-(3,4-difluorobenzyl)-1-oxo-1,2-dihydroisoquinoline-7-carboxylic Acid (pyrimidin-5-ylmethyl)-amide]
2 | 3.1 | CS(=O)(=O)c1ccc(Cn2ccc3ccc(C(=O)NCc4ccncc4)cc3c2=O)cc1 [Example 49, 2-(4-methanesulfonylbenzyl)-1-oxo-1,2-dihydroisoquinoline-7-carboxylic Acid (pyridin-4-ylmethyl)amide]
3 | 2.2 | CSc1ccc(CNC(=O)c2ccc3ccn(Cc4ccc(S(C)(=O)=O)cc4)c(=O)c3c2)cc1 [Example 56, 2-(4-methane-sulfonylbenzyl)-1-oxo-1,2-dihydro-isoquinoline-7-carboxylic Acid 4-methyl-sulfanylbenzylamide]
4 | 3.4 | N#Cc1ccc(Cn2ccc3ccc(C(=O)NCc4cccnc4)cc3c2=O)cc1 [Example 34, 2-(4-cyanobenzyl)-1-oxo-1,2-dihydro-isoquinoline-7-carboxylic acid (pyridin-3-ylmethyl)amide]
5 | 26 | O=C(NCc1ccncc1)c1ccc2ccn(CCOc3ccccc3)c(=O)c2c1 [Example 41, 1-oxo-2-(2-phenoxyethyl)-1,2-dihydroisoquinoline-7-carboxylic Acid (pyridin-4-ylmethyl)amide]
6 | 7.4 | CS(=O)(=O)c1ccc(Cn2ccc3ccc(C(=O)NCc4cccnc4)cc3c2=O)cc1 [Example 50, 2-(4-methane-sulfonylbenzyl)-1-oxo-1,2-dihydro-isoquinoline-7-carboxylic Acid (pyridin-3-ylmethyl)amide]
7 | 35 | CS(=O)(=O)c1ccc(Cn2ccc3ccc(C(=O)NCc4cncnc4)cc3c2=O)cc1 [Example 54, 2-(4-methane-sulfonylbenzyl)-1-oxo-1,2-dihydro-isoquinoline-7-carboxylic Acid (pyrimidin-5-ylmethyl)amide]
8 | 1.2 | COc1cccc(CNC(=O)c2ccc3ccn(CCOc4ccccc4)c(=O)c3c2)c1 [Example 45, 1-oxo-2-(2-phenoxyethyl)-1,2-dihydroisoquinoline-7-carboxylic Acid 3-methoxybenzylamide]
9 | 1.8 | O=C(O)c1ccc(Cn2ccc3ccc(C(=O)NCc4cncnc4)cc3c2=O)cc1 [Example 28, 4-[1-oxo-7-[(pyrimidin-5-ylmethyl)carbamoyl]-1H-isoquinolin-2-ylmethyl]benzoic Acid]
10 | 4.2 | CSc1ccc(CNC(=O)c2ccc3ccn(CCOc4ccccc4)c(=O)c3c2)cc1 [Example 48, 1-oxo-2-(2-phenoxyethyl)-1,2-dihydroisoquinoline-7-carboxylic Acid 4-methylsulfanylbenzamide]

same assay, conditions: Biological Table 2, compounds of Example 66; read-out: MMP-13CD IC50

Row | IC50 [µM] | SMILES
11 | 3.9 | N#CCCCCCCn1ccc2ccc(C#CCc3ccccc3)cc2c1=O [Example 66aj, 7-[1-Oxo-7-(3-phenyl-prop-1-ynyl)-1H-isoquinolin-2-yl]-heptanenitrile]
12 | > 30 | CC1OCCCC1n1ccc2ccc(C#CCc3ccccc3)cc2c1=O (stereo not drawn) [Example 66g, 2-(2-Methyl-tetrahydro-pyran-3-yl)-7-(3-phenyl-prop-1-ynyl)-2H-isoquinolin-1-one]
13 | 22.5 | N#CCCCn1ccc2ccc(C#CCc3ccccc3)cc2c1=O [Example 66c, 4-[1-Oxo-7-(3-phenyl-prop-1-ynyl)-1H-isoquinolin-2-yl]-butyronitrile]
14 | 8.6 | N#CCCCCCn1ccc2ccc(C#CCc3ccccc3)cc2c1=O [Example 66af, 6-[1-Oxo-7-(3-phenyl-prop-1-ynyl)-1H-isoquinolin-2-yl]-hexanenitrile]
15 | > 100 | COC(=O)CCn1ccc2ccc(C#CCc3ccccc3)cc2c1=O [Example 66k, 3-[1-Oxo-7-(3-phenyl-prop-1-ynyl)-1H-isoquinolin-2-yl]-propionic acid methyl ester]
16 | 50 | O=c1c2cc(C#CCc3ccccc3)ccc2ccn1CC(O)CO (stereo not drawn) [Example 66e, 2-(2,3-Dihydroxy-propyl)-7-(3-phenyl-prop-1-ynyl)-2H-isoquinolin-1-one]
17 | 4.8 | N#CCCn1ccc2ccc(C#CCc3ccccc3)cc2c1=O [Example 66d, 3-[1-Oxo-7-(3-phenyl-prop-1-ynyl)-1H-isoquinolin-2-yl]-propionitrile]
18 | 24 | O=c1c2cc(C#CCc3ccccc3)ccc2ccn1CCC1OCCO1 [Example 66m, 2-(2-1,3-Dioxolan-2-yl-ethyl)-7-(3-phenyl-prop-1-ynyl)-2H-isoquinolin-1-one]
19 | 11 | CCOC(=O)Cn1ccc2ccc(C#CCc3ccccc3)cc2c1=O [Example 66x, [1-Oxo-7-(3-phenyl-prop-1-ynyl)-1H-isoquinolin-2-yl]-acetic acid ethyl ester]
20 | 19 | CC(C)(C)C(=O)Cn1ccc2ccc(C#CCc3ccccc3)cc2c1=O [Example 66ae, 2-(3,3-Dimethyl-2-oxo-butyl)-7-(3-phenyl-prop-1-ynyl)-2H-isoquinolin-1-one]
21 | 8.7 | CCOC(=O)CCCCCn1ccc2ccc(C#CCc3ccccc3)cc2c1=O [Example 66v, 6-[1-Oxo-7-(3-phenyl-prop-1-ynyl)-1H-isoquinolin-2-yl]-hexanoic acid ethyl ester]
22 | > 30 | O=c1c2cc(C#CCc3ccccc3)ccc2ccn1CCC1OCCCO1 [Example 66f, 2-(2-1,3-Dioxinan-2-yl-ethyl)-7-(3-phenyl-prop-1-ynyl)-2H-isoquinolin-1-one]
23 | 9.4 | COC(=O)CCCCn1ccc2ccc(C#CCc3ccccc3)cc2c1=O [Example 66p, 5-[1-Oxo-7-(3-phenyl-prop-1-ynyl)-1H-isoquinolin-2-yl]-pentanoic acid methyl ester]
24 | 1.9 | O=c1c2cc(C#CCc3ccccc3)ccc2ccn1Cc1ccccc1 [Example 66ag, 2-Benzyl-7-(3-phenyl-prop-1-ynyl)-2H-isoquinolin-1-one]
25 | > 100 | O=c1c2cc(C#CCc3ccccc3)ccc2ccn1CC(CO)(CO)CO [Example 66b, 2-(3-Hydroxy-2,2-bis-hydroxymethyl-propyl)-7-(3-phenyl-prop-1-ynyl)-2H-isoquinolin-1-one]
26 | 12 | CCOC(=O)CCCn1ccc2ccc(C#CCc3ccccc3)cc2c1=O [Example 66aa, 4-[1-Oxo-7-(3-phenyl-prop-1-ynyl)-1H-isoquinolin-2-yl]-butyric acid ethyl ester]
27 | 20 | O=c1c2cc(C#CCc3ccccc3)ccc2ccn1CS(=O)(=O)c1ccccc1 [Example 66ad, 2-Benzenesulfonylmethyl-7-(3-phenyl-prop-1-ynyl)-2H-isoquinolin-1-one]
28 | 24 | O=c1c2cc(C#CCc3ccccc3)ccc2ccn1CC(F)(F)F [Example 66ah, 7-(3-Phenyl-prop-1-ynyl)-2-(2,2,2-trifluoro-ethyl)-2H-isoquinolin-1-one]
29 | 22 | COC(=O)Cn1ccc2ccc(C#CCc3ccccc3)cc2c1=O [Example 66q, [1-Oxo-7-(3-phenyl-prop-1-ynyl)-1H-isoquinolin-2-yl]-acetic acid methyl ester]
30 | > 100 | CCOC(=O)CCn1ccc2ccc(C#CCc3ccccc3)cc2c1=O [Example 66t, 3-[1-Oxo-7-(3-phenyl-prop-1-ynyl)-1H-isoquinolin-2-yl]-propionic acid ethyl ester]
31 | 24 | O=c1c2cc(C#CCc3ccccc3)ccc2ccn1CC1OCCO1 [Example 66n, 2-1,3-Dioxolan-2-ylmethyl-7-(3-phenyl-prop-1-ynyl)-2H-isoquinolin-1-one]
32 | 11 | COc1ccc2nc(Cn3ccc4ccc(C#CCc5ccccc5)cc4c3=O)c(=O)oc2c1 [Example 66u, 7-Methoxy-3-[1-oxo-7-(3-phenyl-prop-1-ynyl)-1H-isoquinolin-2-ylmethyl]-1,4-benzoxazin-2-one]

same assay, conditions: read-out: IC50 with MMP-13 catalytic domain

Row | IC50 [µM] | SMILES
33 | 0.036 | NS(=O)(=O)c1ccc(Cn2ccc3ccc(C#CCc4ccccc4)cc3c2=O)cc1 [Example 5, 4-[1-Oxo-7-(3-phenyl-prop-1-ynyl)-1H-isoquinolin-2-ylmethyl]benzenesulfonamide]
34 | 0.0018 | O=C(O)c1ccc(Cn2ccc3ccc(C#CCc4ccccc4)cc3c2=O)cc1 [Example 1, 4-[1-Oxo-7-(3-phenyl-prop-1-ynyl)-1H-isoquinolin-2-ylmethyl]benzoic Acid]
35 | 0.052 | O=c1c2cc(C#CCc3ccccc3)ccc2ccn1Cc1cccc(Cl)c1 [Example 10, 2-(3-Chlorobenzyl)-7-(3-phenylprop-1-ynyl)-2H-isoquinolin-1-one]
36 | 0.0089 | O=C(O)c1ccc(Cn2ccc3ccc(C#CCn4ccnc4)cc3c2=O)cc1 [Example 13, 4-[7-(3-Imidazol-1-ylprop-1-ynyl)-1-oxo-1H-isoquinolin-2-ylmethyl]benzoic Acid]
